Laboratory results published in US7601336B2, “Pharmaceutical aerosol composition” (Chiesi Farmaceutici S.p.A., priority 1997, dated 2009).

Experiment: Aerodynamic particle size distribution by Andersen Cascade Impactor (ACI), ten cumulative actuations, drug on plates by HPLC
Assay type: physicochemical
Settings: HFA 134a
Description: The aerosol compositions of the invention described below were prepared by the following method. The required components of a composition were added into a can in the following order: drug, non-volatile additive, absolute ethanol. After crimping of the valve on to the can, the propellant was added through the valve. The weight gain of the can after each component was added was recorded to allow the percentage, by weight, of each component in the formulation to be calculated. The aerodynamic particle size distribution of each formulation was characterized using a Multistage Cascade Impactor according to the procedure described in the European Pharmacopoeia 2nd edition, 1995, part V.5.9.1. pages 15-17. In this specific case an Andersen Cascade Impactor (ACI) was used. Results represented were obtained from ten cumulative actuations or a formulation. Deposition of the drug on each ACI plate was determined by high pressure liquid chromatography. The mass median aerodynamic diameter (MMAD) and geometric standard deviation (GSD) were calculated from plots of the cumulative percentage undersize of drug collected on each ACI plate (probit scale), against the upper cut off diameter for each respective ACI plate (log10 scale). The fine particle dose of each formulation was determined from the mass of drug collected on Stages 2 through to Filter (<5.8 μm) divided by the number of actuations per experiment.

[1] = Salbutamol base 20 mg/10 ml, ethanol 15% (w/w), glycerol 0% (w/w), oleic acid 0.35% (w/w), actuator orifice 0.30 mm
[2] = Salbutamol base 20 mg/10 ml, ethanol 15% (w/w), glycerol 1.3% (w/w), oleic acid 0.36% (w/w), actuator orifice 0.30 mm
[3] = combination BDP 50 mg/10 ml + Salbutamol base 20 mg/10 ml, ethanol 15.4 ± 0.2% (w/w), glycerol 0%, oleic acid 0%, actuator exit orifice 0.33 mm
[4] = combination BDP 50 mg/10 ml + Salbutamol base 20 mg/10 ml, ethanol 15.4 ± 0.2% (w/w), glycerol 0%, oleic acid 0.3%, actuator exit orifice 0.33 mm
[5] = combination BDP 50 mg/10 ml + Salbutamol base 20 mg/10 ml, ethanol 15.4 ± 0.2% (w/w), glycerol 0%, oleic acid 1.3%, actuator exit orifice 0.30 mm
[6] = combination BDP 50 mg/10 ml + Salbutamol base 20 mg/10 ml, ethanol 15.4 ± 0.2% (w/w), glycerol 1.2%, oleic acid 0.3%, actuator exit orifice 0.30 mm

**Q.** Which results are given for `CC(C)(C)NCC(O)c1ccc(O)c(CO)c1` (stereo not drawn) [Salbutamol base]?
**A.** Emitted dose [1]: 85.8 µg; FPD [1]: 29.1 µg; GSD [1]: 2.3; MMAD [1]: 1.7 μm; Emitted dose [2]: 92.0 µg; FPD [2]: 25.2 µg; GSD [2]: 2.4; MMAD [2]: 2.8 μm; Emitted dose [3]: 82.5 µg; FPD [3]: 26.9 µg; GSD [3]: 2.2; MMAD [3]: 1.7 μm; Emitted dose [4]: 84.8 µg; FPD [4]: 24.0 µg; GSD [4]: 2.6; MMAD [4]: 2.0 μm; Emitted dose [5]: 85.9 µg; FPD [5]: 23.9 µg; GSD [5]: 2.1; MMAD [5]: 2.4 μm; Emitted dose [6]: 85.3 µg; FPD [6]: 25.1 µg; GSD [6]: 2.0; MMAD [6]: 3.0 μm
